The values that follow come from US5500414A, “Derivatives of peptides usable as inhibitors of bacterial collagenases” (Commissariat a l'Energie Atomique, priority 1991, dated 1996).

The target of the assay is bacterial collagenase. Briefly: Inhibition of bacterial collagenase; Ki from dissociation and association rate constants, substrate Fa--Leu--Gly--Pro--Ala. Type of assay: biochemical, Empedobacterium collagenolyticum. To be noted: ratio Koff/Kon, slow binding inhibitors, pH7 Tricine buffer. Here is the method:
The activities of the different compounds A, B, C and D were determined on the one hand by measuring the association rate constant of the inhibitors to collagenase by the method of Morrison, J. & Walsh, C. T., 1987, Adv., Enzymol. Relat. Aeras Mol. Biol. applied in the case where the inhibitors are of the slow binding type and on the other hand by measuring the dissociation rate constants of the inhibitors of the enzyme--inhibitor complex. In this case, after allowing the collagenase to preincubate in the presence of an inhibitor excess, the thus formed enzyme--inhibitor complex is purified by gel filtration. The solution containing the purified complex is then diluted by a factor of 10,000 in a reference buffer and then, as a function of time, measurement takes place of the return of the activity of the collagenase, which represents the dissociation of the inhibitor of the enzyme--inhibitor complex.
The inhibition constants given in the table correspond to the ratio of the dissociation rate constants Koff and the association rate constants Kon measured in this way. In all the activity measurement experiments we used as the synthetic substrate Fa--Leu--Gly--Pro--Ala in a pH7 Tricine buffer. The source of the bacterial collagenase used was the strain Empedobacterium collagenolyticum.
For orientation: Ki means a dissociation constant, usually derived from enzyme kinetics or from competition with a known ligand. Consider “Z--D,LPhe*--PO2 CH2 --CH2 --CO--Pro--Nle*,2Na^+ [Compound A]”, for which the Ki was determined as 12 nM.

Consider “Z--Pro--Phe*--PO(OH)--CH2 --CH2 --CO--Pro--Nle* 2Na^+ [Compound B]”, for which the Ki came out at 80 nM.

For the substance “Z--Gly--Pro--Phe*--PO(OH)--CH2 --CH2 --CO--Pro--Nle*2Na^+”, the Ki amounted to 0.4 nM.

Z,D,L-Phe*PCH2DL-Ala°ProNle°, 2Na^+ [F]: the Ki came out at 2350 nM.
